Our source for the IC50 and inhibition values is ChEMBL document CHEMBL5576074, “[1,2,4]Triazolo[1,5-a]pyrimidine derivatives: Structure-activity relationship study leading to highly selective ENPP1 inhibitors” (Bioorg Med Chem Lett, 2024).

For assay [1], the target named is T1, Ectonucleotide pyrophosphatase/phosphodiesterase family member 1 (Homo sapiens, UniProt P22413).
T1 sequence (P22413 whole entry): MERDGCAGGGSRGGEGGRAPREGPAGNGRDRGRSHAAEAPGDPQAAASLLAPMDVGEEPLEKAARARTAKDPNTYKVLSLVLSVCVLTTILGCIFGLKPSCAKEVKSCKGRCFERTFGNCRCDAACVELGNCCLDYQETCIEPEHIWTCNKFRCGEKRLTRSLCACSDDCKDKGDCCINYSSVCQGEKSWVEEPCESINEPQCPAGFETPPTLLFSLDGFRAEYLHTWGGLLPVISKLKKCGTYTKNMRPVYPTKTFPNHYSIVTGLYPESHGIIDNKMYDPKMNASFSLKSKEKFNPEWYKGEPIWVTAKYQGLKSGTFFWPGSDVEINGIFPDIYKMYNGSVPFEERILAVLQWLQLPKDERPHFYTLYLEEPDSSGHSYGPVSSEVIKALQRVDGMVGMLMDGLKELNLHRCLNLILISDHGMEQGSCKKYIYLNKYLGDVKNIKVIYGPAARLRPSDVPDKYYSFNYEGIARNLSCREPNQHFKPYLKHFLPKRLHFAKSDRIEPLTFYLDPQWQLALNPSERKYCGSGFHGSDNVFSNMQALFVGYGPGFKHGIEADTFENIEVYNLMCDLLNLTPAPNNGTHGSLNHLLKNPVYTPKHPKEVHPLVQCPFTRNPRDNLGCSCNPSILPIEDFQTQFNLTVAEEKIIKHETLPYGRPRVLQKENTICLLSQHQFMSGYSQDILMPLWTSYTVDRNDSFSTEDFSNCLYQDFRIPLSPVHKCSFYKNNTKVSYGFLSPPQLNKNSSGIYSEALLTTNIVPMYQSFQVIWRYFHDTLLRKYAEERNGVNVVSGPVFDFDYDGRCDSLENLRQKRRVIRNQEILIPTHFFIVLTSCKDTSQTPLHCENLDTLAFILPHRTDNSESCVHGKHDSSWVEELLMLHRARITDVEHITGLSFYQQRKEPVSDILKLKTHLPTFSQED
The experiment in a line: Inhibition of ENPP1 (unknown origin).

For assay [2], the target named is T2, Ectonucleotide pyrophosphatase/phosphodiesterase family member 3 (Homo sapiens, UniProt O14638).
T2 sequence (O14638 whole entry): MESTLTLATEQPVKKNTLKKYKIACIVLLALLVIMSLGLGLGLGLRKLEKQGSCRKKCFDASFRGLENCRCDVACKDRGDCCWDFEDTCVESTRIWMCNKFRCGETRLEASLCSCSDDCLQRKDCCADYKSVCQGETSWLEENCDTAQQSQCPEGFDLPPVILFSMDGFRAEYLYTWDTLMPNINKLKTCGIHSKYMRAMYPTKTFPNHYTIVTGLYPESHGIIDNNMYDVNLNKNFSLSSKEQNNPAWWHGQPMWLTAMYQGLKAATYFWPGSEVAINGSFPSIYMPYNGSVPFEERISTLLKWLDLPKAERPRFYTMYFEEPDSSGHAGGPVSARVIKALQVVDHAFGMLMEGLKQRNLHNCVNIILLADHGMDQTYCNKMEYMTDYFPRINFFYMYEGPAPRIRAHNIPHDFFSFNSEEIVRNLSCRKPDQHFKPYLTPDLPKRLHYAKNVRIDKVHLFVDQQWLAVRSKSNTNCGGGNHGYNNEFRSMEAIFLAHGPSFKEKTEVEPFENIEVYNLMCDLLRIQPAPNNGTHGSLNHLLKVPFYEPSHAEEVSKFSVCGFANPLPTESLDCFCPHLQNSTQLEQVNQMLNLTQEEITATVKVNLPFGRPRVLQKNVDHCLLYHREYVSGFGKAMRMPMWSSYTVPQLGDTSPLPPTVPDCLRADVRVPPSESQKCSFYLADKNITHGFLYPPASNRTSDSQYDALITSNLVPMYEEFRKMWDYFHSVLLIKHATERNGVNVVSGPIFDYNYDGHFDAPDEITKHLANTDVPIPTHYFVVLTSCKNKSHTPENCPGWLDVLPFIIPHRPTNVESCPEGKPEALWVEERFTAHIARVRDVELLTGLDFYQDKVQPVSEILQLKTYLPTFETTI
The experiment in a line: Inhibition of ENPP3 (unknown origin).

For assay [3], the target named is T3, Autotaxin (Homo sapiens, UniProt Q13822). Put plainly: Inhibition of ENPP2 (unknown origin).
Assay [4] concerns the target T4, Glycerophosphocholine cholinephosphodiesterase ENPP6 (Homo sapiens, UniProt Q6UWR7).
T4 sequence (Q6UWR7 whole entry): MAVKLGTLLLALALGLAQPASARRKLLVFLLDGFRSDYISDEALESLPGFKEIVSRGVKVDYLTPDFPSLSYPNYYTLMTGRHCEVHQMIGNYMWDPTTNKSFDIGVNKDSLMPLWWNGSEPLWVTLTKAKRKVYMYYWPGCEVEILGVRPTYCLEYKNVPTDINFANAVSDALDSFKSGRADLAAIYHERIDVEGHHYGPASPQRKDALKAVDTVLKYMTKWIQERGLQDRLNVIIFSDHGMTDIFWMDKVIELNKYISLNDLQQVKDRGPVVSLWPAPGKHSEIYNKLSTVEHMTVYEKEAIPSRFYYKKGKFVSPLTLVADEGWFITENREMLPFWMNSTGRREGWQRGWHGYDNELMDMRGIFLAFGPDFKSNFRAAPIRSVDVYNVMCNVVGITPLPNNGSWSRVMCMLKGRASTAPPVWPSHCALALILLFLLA
Put plainly: Inhibition of ENPP6 (unknown origin).

Assay [5] has as its target T5, Ectonucleotide pyrophosphatase/phosphodiesterase family member 3 (Homo sapiens) (UniProt O14638).
T5 sequence (whole entry): T2 sequence (O14638 whole entry)
The experiment in a line: Inhibition of ENPP3 (unknown origin) at 50 uM relative to control.

Assay [6] has as its target T3, Autotaxin. Put plainly: Inhibition of ENPP2 (unknown origin) at 50 uM relative to control.
In assay [7] the target is T6, Glycerophosphocholine cholinephosphodiesterase ENPP6 (Homo sapiens) (UniProt Q6UWR7).
T6 sequence (whole entry): T4 sequence (Q6UWR7 whole entry)
The experiment in a line: Inhibition of ENPP6 (unknown origin) at 50 uM relative to control.

Some results are limits rather than exact numbers.

Usually IC50 stands for the concentration at which inhibition is half-maximal. Lower therefore signals inhibition by little substance. In general, inhibition refers to the change of the read-out against control, counted positive when it falls. As for `Cc1nc2ncnn2c(N(C)C)c1Cc1ccccc1Cl`, the IC50 in assay [1] was 2.5 µM; in assay [2] it was above 50 µM; in assay [3], above 50 µM; in assay [4], above 50 µM. Further, the inhibition is 3% in assay [5], 15% in assay [6] and below 1% in assay [7].

As to `Cc1nc2ncnn2c2c1Cc1ccccc1N2`, the IC50 was above 30 µM in assay [1], above 50 µM in assay [2], above 50 µM in assay [3] and above 50 µM in assay [4]. For the same compound, the results for the inhibition in assay [5], in assay [6] and in assay [7] were 21%, below 1% and below 1%, respectively.

Consider `Cc1nc2ncnn2c(N(C)C)c1CC1CCCCC1`, for which the IC50 in assay [1] was above 30 µM; in assay [2], above 50 µM; in assay [3], above 50 µM; in assay [4] it was above 50 µM. Further, the inhibition in assay [5] is 3.7%; in assay [6] it was below 1%; in assay [7], below 1%.

Take `Cc1nc2ncnn2c(N(C)C)c1Cc1cccc(Cl)c1`: the IC50 in assay [1] was 1.1 µM; in assay [2] it was above 50 µM; in assay [3], above 50 µM; in assay [4], above 50 µM. In addition, the inhibition in assay [5] came out at 8.7%; in assay [6], 19%; in assay [7], 1.3%.

Turning to `CC(=O)Nc1ccc(Cc2c(C)nc3ncnn3c2N(C)C)cc1`, the IC50 in assay [1] was 4.9 µM; in assay [2], above 50 µM; in assay [3], above 50 µM; in assay [4], above 50 µM. Moreover, the inhibition in assay [5] turned out to be 8.5%; in assay [6] it was 5.1%; in assay [7], 2.3%.

Take `Cc1nc2ncnn2c(N(C)C)c1Cc1cccc(-c2ccccc2)c1`: the IC50 in assay [1] is 21 µM; in assay [2], above 50 µM; in assay [3], above 50 µM; in assay [4] it was above 50 µM. The inhibition in assay [5] is 5.9%; in assay [6], 6.1%; in assay [7], below 1%.

With `C#CCNc1c(Cc2ccccc2)c(C)nc2ncnn12`, the IC50 in assay [1] is above 30 µM; in assay [2], above 50 µM; in assay [3], above 50 µM; in assay [4] it was above 50 µM. The inhibition in assay [5] is 24%; in assay [6] it was 1.4%; in assay [7] it was below 1%.

In the case of `Cc1nc2ncnn2c(N(C)C)c1Cc1cccc([N+](=O)[O-])c1`, the IC50 was 3.6 µM in assay [1], above 50 µM in assay [2], above 50 µM in assay [3] and above 50 µM in assay [4]. Besides, the inhibition was 4.3% in assay [5], 11% in assay [6] and below 1% in assay [7].

On to `Cc1cc(O)n2ncnc2n1`, for which the IC50 in assay [1] is above 30 µM; in assay [2], above 50 µM; in assay [3] it was above 50 µM; in assay [4], above 50 µM. The inhibition in assay [5] is 5.1%; in assay [6], below 1%; in assay [7] it was 2.1%.

Turning to `CCN(CC)c1c(Cc2ccccc2)c(C)nc2ncnn12`, the IC50 in assay [1] was above 30 µM; in assay [2], above 50 µM; in assay [3], above 50 µM; in assay [4] it was above 50 µM. The inhibition in assay [5] was below 1%; in assay [6], 1.9%; in assay [7], below 1%.

In the case of `Cc1nc2ncnn2c(N(C)C)c1Cc1ccccc1[N+](=O)[O-]`, the IC50 in assay [1] is 3.1 µM; in assay [2], above 50 µM; in assay [3], above 50 µM; in assay [4] it was above 50 µM. Further, the inhibition in assay [5] was 6.8%; in assay [6], 4.7%; in assay [7], below 1%.

With `Cc1nc2ncnn2c(NCCCC(=O)O)c1Cc1cccc(N)c1`, the IC50 is 11 µM in assay [1], above 50 µM in assay [2], above 50 µM in assay [3] and above 50 µM in assay [4]. Also, the inhibition in assay [5] came to 11%; in assay [6], 22%; in assay [7], 3.7%.

As for `Cc1nc2nc(SCC(=O)O)nn2c(N(C)C)c1Cc1ccccc1`, the IC50 was above 30 µM in assay [1], above 50 µM in assay [2], above 50 µM in assay [3] and above 50 µM in assay [4]. The inhibition in assay [5], in assay [6] and in assay [7] was below 1% in each case.

Take `CCCN(CCC)c1c(Cc2ccccc2)c(C)nc2ncnn12`: the IC50 in assay [1] was above 30 µM; in assay [2] it was above 50 µM; in assay [3], above 50 µM; in assay [4] it was above 50 µM. Further, the inhibition is below 1% in assay [5], 5.5% in assay [6] and below 1% in assay [7].

Take `CCNc1c(Cc2ccccc2)c(C)nc2ncnn12`: the IC50 in assay [1] was 22 µM; in assay [2], above 50 µM; in assay [3] it was above 50 µM; in assay [4], above 50 µM. Besides, the figures for the inhibition in assay [5], in assay [6] and in assay [7] were 7%, 7.8% and below 1%, respectively.

In the case of `Cc1cc(N(C)C)n2ncnc2n1`, the 50% inhibitory concentration (IC50) in assay [1] is 28 µM; in assay [2] it was above 50 µM; in assay [3], above 50 µM; in assay [4] it was above 50 µM. Further, the inhibition in assay [5] was 10%; in assay [6], below 1%; in assay [7], below 1%.

For `CC(=O)Nc1cccc(Cc2c(C)nc3ncnn3c2N(C)C)c1`, the IC50 in assay [1] was 2.3 µM; in assay [2], above 50 µM; in assay [3] it was above 50 µM; in assay [4], above 50 µM. Besides, the figures for the inhibition in assay [5], in assay [6] and in assay [7] were 3%, below 1% and below 1%, respectively.

`Cc1cccc(Cc2c(C)nc3ncnn3c2N(C)C)c1`: the IC50 in assay [1] was 3.1 µM; in assay [2], above 50 µM; in assay [3], above 50 µM; in assay [4] it was above 50 µM. Also, the results for the inhibition in assay [5], in assay [6] and in assay [7] were 4.9%, 9.7% and 1.1%, respectively.

As to `Cc1nc2ncnn2c(NCCO)c1Cc1ccccc1`, the IC50 is above 30 µM in assay [1], above 50 µM in assay [2], above 50 µM in assay [3] and above 50 µM in assay [4]. The inhibition in assay [5] is 4.3%; in assay [6], below 1%; in assay [7] it was below 1%.
